The source made the active and inactive calls. No cut-off for these calls is given here.
What was measured:
[1] = tested on: K562; assay: Cytotoxicity against human K562 cells after 4 hrs by MTT assay; format: functional, cell-based; conditions: K562, 4 h
[2] = tested on: KB; assay: Cytotoxicity against human KB cells after 4 hrs by MTT assay; format: functional, cell-based
[3] = tested on: MCF7; assay: Cytotoxicity against human MCF7 cells after 4 hrs by MTT assay; format: functional, cell-based; conditions: MCF7, 4 h
[4] = Cytotoxicity against human U87 cells after 4 hrs by MTT assay; format: functional, cell-based, U-87MG ATCC; conditions: U-87 MG
[5] = Cytotoxicity against human EVC304 cells after 4 hrs by MTT assay; format: cell-based; conditions: EVC304, 4 h
[6] = Cytotoxicity against human HL-7702 cells after 4 hrs by MTT assay; format: cell-based; conditions: L02, 4 h
[7] = tested on: H9c2; assay: Cytotoxicity against rat H9c2 cells after 4 hrs by MTT assay; format: cell-based; conditions: H9c2, 4 h
[8] = tested on: K562; assay: Anticancer activity against human K562 cells assessed as membrane surface blebs at 5 uM after 30 to 60 mins by time-lapse microscopy; format: functional, cell-based
[9] = tested on: K562; assay: Anticancer activity against human K562 cells assessed as membrane surface blebs at 5 uM after 15 to 30 mins by time-lapse microscopy; format: functional, cell-based
[10] = tested on: K562; assay: Anticancer activity against human K562 cells assessed as loss of plasma membrane integrity at 5 uM after 10 mins by LDH release assay; format: functional, cell-based
[11] = tested on: K562; assay: Anticancer activity against human K562 cells assessed as loss of plasma membrane integrity at 5 uM after 180 mins by LDH release assay; format: functional, cell-based
[12] = tested on: MCF7; assay: Anticancer activity against human MCF7 cells assessed as loss of plasma membrane integrity at 5 uM after 10 mins by LDH release assay; format: functional, cell-based
[13] = tested on: MCF7; assay: Anticancer activity against human MCF7 cells assessed as loss of plasma membrane integrity at 5 uM after 180 mins by LDH release assay; format: functional, cell-based
[14] = tested on: K562; assay: Anticancer activity against human K562 cells assessed as loss of cell membrane integrity after 12 hrs by propidium iodide staining-based fluorescence microscopy; format: functional
[15] = tested on: KB; assay: Anticancer activity against human KB cells assessed as loss of cell membrane integrity after 12 hrs by propidium iodide staining-based fluorescence microscopy; format: functional
[16] = tested on: MCF7; assay: Anticancer activity against human MCF7 cells assessed as loss of microtubules and actin microfilaments after 12 hrs by immunostaining; format: functional, cell-based

SMILES	IC50 [1]	IC50 [2]	IC50 [3]	IC50 [4]	IC50 [5]	IC50 [6]	IC50 [7]	Activity [8]	Activity [9]	Activity [10]	Activity [11]	Activity [12]	Activity [13]	Activity [14]	Activity [15]	Activity [16]
C[C@@H]1CC[C@@]2(OC1)O[C@H]1C[C@H]3[C@@H]4CC[C@H]5C[C@@H](O[C@@H]6O[C@H](CO)[C@H](O)[C@H](O[C@@H]7OC[C@@H](O)[C@H](O)[C@H]7O)[C@H]6O[C@@H]6O[C@@H](C)[C@H](O)[C@@H](O)[C@H]6O)CC[C@]5(C)[C@H]4CC[C@]3(C)[C@H]1[C@@H]2C	3.77 µM	1.32 µM	2.61 µM	3.12 µM	1.03 µM	6.92 µM	> 20 µM	Active	inactive	Active	Active	Active	Active	Active	Active	Active
CC[C@H](CC[C@@H](C)[C@H]1CC[C@H]2[C@@H]3CC=C4C[C@@H](O[C@@H]5O[C@H](CO)[C@H](O)[C@H](O[C@@H]6OC[C@@H](O)[C@H](O)[C@H]6O)[C@H]5O[C@@H]5O[C@@H](C)[C@H](O)[C@@H](O)[C@H]5O)CC[C@]4(C)[C@H]3CC[C@]12C)C(C)C	> 40 µM	> 40 µM	> 40 µM	> 40 µM												
C=C(C)[C@@H]1CC[C@]2(C)CC[C@]3(C)[C@H](CC[C@@H]4[C@@]5(C)CC[C@H](O[C@@H]6O[C@H](CO)[C@H](O)[C@H](O[C@@H]7OC[C@@H](O)[C@H](O)[C@H]7O)[C@H]6O[C@@H]6O[C@@H](C)[C@H](O)[C@@H](O)[C@H]6O)C(C)(C)[C@@H]5CC[C@]43C)[C@@H]12	> 40 µM	> 40 µM	> 40 µM	> 40 µM												
C[C@@H]1CC[C@@]2(OC1)O[C@H]1C[C@H]3[C@@H]4CC=C5C[C@@H](O[C@@H]6O[C@H](CO)[C@H](O)[C@H](O[C@@H]7OC[C@@H](O)[C@H](O)[C@H]7O)[C@H]6O[C@@H]6O[C@@H](C)[C@H](O)[C@@H](O)[C@H]6O)CC[C@]5(C)[C@H]4CC[C@]3(C)[C@H]1[C@@H]2C [INDIOSIDE E]	3.74 µM	1.71 µM	1.82 µM	2.48 µM	3.93 µM	4.81 µM	> 20 µM									
C[C@@H]1O[C@@H](O[C@H]2[C@H](O[C@H]3CC[C@]4(C)[C@H]5CC[C@]6(C)C(=CC[C@@]7(C)CCC(C)(C)C[C@H]76)[C@]5(C)CC[C@H]4C3(C)C)O[C@H](CO)[C@H](O)[C@@H]2O[C@@H]2OC[C@@H](O)[C@H](O)[C@H]2O)[C@H](O)[C@H](O)[C@H]1O	> 40 µM	> 40 µM	> 40 µM	> 40 µM												
CC(C)CCC[C@@H](C)[C@H]1CC[C@H]2[C@@H]3CC=C4C[C@@H](O[C@@H]5O[C@H](CO)[C@H](O)[C@H](O[C@@H]6OC[C@@H](O)[C@H](O)[C@H]6O)[C@H]5O[C@@H]5O[C@@H](C)[C@H](O)[C@@H](O)[C@H]5O)CC[C@]4(C)[C@H]3CC[C@]12C	11.3 µM	16.3 µM	9.48 µM	16.5 µM	> 20 µM	> 20 µM	> 20 µM									
